Holding throughout (type): biochemical
One assay has as its target T1, MAO-A (Homo sapiens, UniProt P21397).
T1 construct: purchased Sigma-Aldrich Co. LLC
T1 sequence (P21397 1-527): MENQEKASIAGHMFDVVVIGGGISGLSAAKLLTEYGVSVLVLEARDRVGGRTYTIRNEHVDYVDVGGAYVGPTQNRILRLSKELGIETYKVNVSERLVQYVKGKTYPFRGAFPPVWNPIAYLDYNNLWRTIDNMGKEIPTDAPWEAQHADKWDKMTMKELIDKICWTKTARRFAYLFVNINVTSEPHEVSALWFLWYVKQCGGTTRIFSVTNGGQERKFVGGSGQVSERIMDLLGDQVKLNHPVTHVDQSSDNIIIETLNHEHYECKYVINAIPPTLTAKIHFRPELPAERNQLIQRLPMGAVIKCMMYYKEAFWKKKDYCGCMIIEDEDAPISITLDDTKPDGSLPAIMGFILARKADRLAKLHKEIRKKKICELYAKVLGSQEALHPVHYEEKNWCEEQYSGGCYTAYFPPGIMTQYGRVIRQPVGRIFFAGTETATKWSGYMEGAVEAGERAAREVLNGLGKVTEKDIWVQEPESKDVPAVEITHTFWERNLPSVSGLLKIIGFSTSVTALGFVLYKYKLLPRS
In words: Measurement of MAO-A inhibitory activity (MAO-Glo Assay). The protocol: (1) Measurement of MAO-A Inhibitory Activity
The MAO-A inhibitory activity evaluation described below followed the protocol of MAO-Glo (registered trademark) Assay of Promega KK.
(§1) A test compound dissolved in 4% DMSO was added by 12.5 μL to 25 μL reaction solution (100 mM HEPES (pH 7.5), 5% glycerol) containing 400 ng of MAO-A enzyme (Sigma-Aldrich Co. LLC.), and the mixture was reacted at room temperature for 10 min. MAO substrate (Promega KK) (160 μM) was added by 12.5 μL to start the reaction. After reaction at room temperature for 60 min, Luciferine detection reagent (Promega KK) (50 μL) was added to terminate the reaction. After reaction at room temperature for 20 min with stirring, the luminescence was measured by Envision (PerkinElmer). The MAO-A inhibitory rate (%) of the test compound was calculated by the following formula. inhibitory rate (%)=(1−(test compound count−blank)÷(control−blank)×100
The count of the MAO-A enzyme reaction mixture under compound non-addition conditions is indicated as control, and the count under compound non-addition and MAO-A enzyme non-addition conditions is indicated as blank.

For the next assay, the target named is T2, human LSD1(171-852) (Homo sapiens, UniProt O60341).
T2 construct: to give hLSD1(171-852) purified product; made in house; host or cells: Escherichia coli C43(DE3) pLysS
In words: Measurement of LSD1 inhibitory activity (time-resolved fluorescence, biotin-histone H3 mono methylated K4 peptide). Conditions: read-out: LSD1 IC50 value. As for the experimental part:
When the turbidity reached 600 Klett units, the culture temperature was changed to 16° C., IPTG having a final concentration of 0.5 mM was added to induce expression, and the cells were cultured further for 21 hr. The culture medium was centrifuged at 9,000 g for 10 min, and Escherichia coli pellets were recovered.
Escherichia coli pellets in 9 L of the culture medium were suspended in 1340 mL of an extraction buffer (PBS, 5% (V/V) Glycerol), and 6700 units of Benzonase (Merck) were added. Using Branson ultrasonic disintegrator, the suspension was disrupted by ultrasonication for 3 min, and centrifuged at 33,000 g for 20 min, and the supernatant was recovered.
(5) Measurement of LSD1 Inhibitory Activity
After reaction at room temperature for 20 min, 1 mM 2-PCPA solution (5 μL) was added to terminate the reaction. A detection solution (800 mM potassium fluoride, 0.1% BSA) containing europium-labeled antihistone H3 antibody (Wako Pure Chemical Industries, Ltd.) and Streptavidin-XL665 (Cisbio) was further added by 5 μL, and the mixture was left standing for 60 min. A time-resolved fluorescence (excitation 320 nm, emission 615 nm, 665 nm) was measured by Envision (PerkinElmer). The LSD1 inhibitory rate (%) of the test compound was calculated by the following formula. inhibitory rate (%)=(1−(test compound count−blank)÷(control−blank)×100
The count of the LSD1 enzyme reaction mixture under compound non-addition conditions is indicated as control, and the count under compound non-addition and LSD1 enzyme non-addition conditions is indicated as blank.

The target of another assay is T3, MAO-B (Homo sapiens, UniProt P27338).
T3 construct: purchased Sigma-Aldrich Co. LLC
T3 sequence (P27338 1-520): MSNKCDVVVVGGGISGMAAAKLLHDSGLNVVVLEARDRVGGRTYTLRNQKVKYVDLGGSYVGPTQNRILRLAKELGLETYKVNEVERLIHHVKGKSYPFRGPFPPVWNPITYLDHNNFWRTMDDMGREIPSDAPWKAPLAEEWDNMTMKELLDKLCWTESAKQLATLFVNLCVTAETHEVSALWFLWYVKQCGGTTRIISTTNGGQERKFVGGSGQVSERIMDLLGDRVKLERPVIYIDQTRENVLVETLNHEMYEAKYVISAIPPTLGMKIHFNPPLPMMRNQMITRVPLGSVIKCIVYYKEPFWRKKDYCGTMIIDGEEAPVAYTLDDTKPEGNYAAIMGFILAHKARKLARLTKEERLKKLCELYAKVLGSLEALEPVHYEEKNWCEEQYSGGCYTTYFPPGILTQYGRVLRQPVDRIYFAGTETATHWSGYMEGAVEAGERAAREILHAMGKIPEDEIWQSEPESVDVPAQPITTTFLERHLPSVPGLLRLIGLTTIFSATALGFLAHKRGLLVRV
In words: Measurement of MAO-B inhibitory activity (MAO-Glo Assay). As for the experimental part: (2) Measurement of MAO-B Inhibitory Activity
The MAO-B inhibitory activity evaluation described below followed the protocol of MAO-Glo (registered trademark) Assay of Promega KK.
as §1, with “glycerol, 10% DMSO)” for “glycerol)”, “MAO-B” for “MAO-A”, “(16” for “(160”
The count of the MAO-B enzyme reaction mixture under compound non-addition conditions is indicated as control, and the count under compound non-addition and MAO-B enzyme non-addition conditions is indicated as blank.

Where a name gives a salt, the structure may show the parent alone.

A word on the IC50: it is the concentration at which inhibition is half-maximal.

Take `O=C(Nc1ccc([C@@H]2C[C@H]2NCc2cccs2)cc1)c1ccccc1` (relative stereo) [Example 13, N-(4-{trans-2-[(thiophen-2-ylmethyl)amino]-cyclopropyl}-phenyl)benzamide]: the IC50 was more than 10 µM at MAO-A, less than 0.1 µM on human LSD1(171-852) and more than 10 µM at MAO-B.
Regarding `O=C(Nc1ccc([C@@H]2C[C@H]2NCCCc2ccccc2)cc1)c1ccccc1` (relative stereo) [Example 14, N-(4-{trans-2-[(3-phenyl-propyl)amino]-cyclopropyl}-phenyl)benzamide], the IC50 against MAO-A is more than 10 µM; at human LSD1(171-852), less than 0.1 µM; on MAO-B, more than 10 µM.
For `O=C(Nc1ccc([C@@H]2C[C@H]2NCc2ccccc2F)cc1)c1ccccc1` (relative stereo) [Example 15, N-(4-{trans-2-[(2-fluoro-benzyl)amino]-cyclopropyl}-phenyl)benzamide], the values for the IC50 at MAO-A, on human LSD1(171-852) and against MAO-B were 6 µM, less than 0.1 µM and more than 10 µM, respectively.
The like results for `O=C(Nc1ccc([C@@H]2C[C@H]2NCc2ccc(-c3ccccc3)cc2)cc1)c1ccccc1` (relative stereo) [Example 16, N-(4-{trans-2-[(biphenyl-4-ylmethyl)amino]-cyclopropyl}-phenyl)benzamide] were, in that order, 4.7 µM, less than 0.1 µM and more than 10 µM.
As to `CC(C)(C)CN[C@@H]1C[C@H]1c1ccc(NC(=O)c2ccccc2)cc1` (relative stereo) [Example 17, N-(4-{trans-2-[(2,2-dimethyl-propyl)amino]-cyclopropyl)-phenyl)benzamide], the IC50 on MAO-A is more than 10 µM; at human LSD1(171-852), less than 0.1 µM; against MAO-B it was more than 10 µM.
For `O=C(Nc1ccc([C@@H]2C[C@H]2NCc2ccc3ccccc3c2)cc1)c1ccccc1` (relative stereo) [Example 18, N-(4-{trans-2-[(naphthalen-2-ylmethyl)amino]-cyclopropyl}-phenyl)benzamide], the IC50 against MAO-A is 2.6 µM; at human LSD1(171-852), less than 0.1 µM; against MAO-B, more than 10 µM.
Turning to `CC(N[C@@H]1C[C@H]1c1ccc(NC(=O)c2ccccc2)cc1)c1ccccc1` (relative stereo) [Example 19, N-(4-{trans-2-[(1-phenyl-ethyl)amino]-cyclopropyl}-phenyl)benzamide], the IC50 against MAO-A was more than 10 µM; at human LSD1(171-852), less than 0.1 µM; at MAO-B, 3.2 µM.
The like results for `O=C(Nc1ccc([C@@H]2C[C@H]2NC2CCc3ccccc32)cc1)c1ccccc1` (relative stereo) [Example 20, N-{4-[trans-2-(2,3-dihydro-1H-inden-1-ylamino)cyclo-propyl]phenyl}-benzamide] were, in that order, more than 10 µM, less than 0.1 µM and more than 10 µM.
For `O=C(Nc1ccc([C@@H]2C[C@H]2NC2c3ccccc3-c3ccccc32)cc1)c1ccccc1` (relative stereo) [Example 21, N-{4-[trans-2-(9H-fluoren-9-ylamino)cyclo-propyl]phenyl}-benzamide], the IC50 was more than 10 µM against MAO-A, less than 0.1 µM at human LSD1(171-852) and more than 10 µM on MAO-B.
Take `CCCCCCCCCCCCN[C@@H]1C[C@H]1c1ccc(NC(=O)c2ccccc2)cc1` (relative stereo) [Example 22, N-{4-[trans-2-(dodecylamino)-cyclopropyl]-phenyl}benzamide]: the IC50 against MAO-A is 3.6 µM; on human LSD1(171-852), 0.41 µM; against MAO-B, 2.6 µM.
Regarding `O=C(Nc1ccc([C@@H]2C[C@H]2NC2CCCCCC2)cc1)c1ccccc1` (relative stereo) [Example 23, N-{4-[trans-2-(cycloheptyl-amino)cyclo-propyl]phenyl}-benzamide], the IC50 is more than 10 µM at MAO-A, less than 0.1 µM at human LSD1(171-852) and more than 10 µM at MAO-B.
Take `O=C(Nc1ccc([C@@H]2C[C@H]2NC2CCCCCCC2)cc1)c1ccccc1` (relative stereo) [Example 24, N-{4-[trans-2-(cyclooctyl-amino)cyclo-propyl]phenyl}-benzamide]: the IC50 against MAO-A is more than 10 µM; on human LSD1(171-852), less than 0.1 µM; at MAO-B, more than 10 µM.
Turning to `O=C(Nc1ccc([C@@H]2C[C@H]2NC2CCN(Cc3ccccc3)CC2)cc1)c1ccccc1` (relative stereo) [Example 25, N-(4-{trans-2-[(1-benzyl-piperidin-4-yl)amino]cyclo-propyl}phenyl)-benzamide], the IC50 against MAO-A was more than 10 µM; at human LSD1(171-852) it was less than 0.1 µM; against MAO-B, more than 10 µM.
Take `O=C(Nc1ccc([C@@H]2C[C@H]2NCCOCc2ccccc2)cc1)c1ccccc1` (relative stereo) [Example 26, N-[4-(trans-2-{[2-(benzyloxy)-ethyl]amino}-cyclopropyl)-phenyl]benzamide]: the results for the IC50 at MAO-A, on human LSD1(171-852) and against MAO-B were 9.2 µM, less than 0.1 µM and more than 10 µM, respectively.
Take `O=C(Nc1ccc([C@@H]2C[C@H]2NCc2ccccc2)cc1)c1cccc(Cc2ccccc2)c1` (relative stereo) [Example 28, 3-benzyl-N-{4-[trans-2-(benzylamino)cyclopropyl]phenyl}benzamide]: the IC50 at MAO-A is 3.5 µM; at human LSD1(171-852), less than 0.1 µM; against MAO-B, more than 10 µM.
On to `O=C(Nc1ccc([C@@H]2C[C@H]2NCc2ccccc2)cc1)c1cccc(NCc2ccccc2)c1` (relative stereo) [Example 29, 3-(benzylamino)-N-{4-[trans-2-(benzylamino)cyclopropyl]phenyl}benzamide], for which the IC50 was 5.2 µM on MAO-A, 0.11 µM at human LSD1(171-852) and more than 10 µM against MAO-B.
Consider `O=C(Nc1ccc([C@@H]2C[C@H]2N2CCCC2)cc1)c1ccccc1` (relative stereo) [Example 30, N-{4-[trans-2-(pyrrolidin-1-yl)cyclopropyl]phenyl}benzamide hydrochloride], for which the IC50 against MAO-A was 1.7 µM; at human LSD1(171-852), 0.58 µM; at MAO-B, more than 10 µM.
